Assay results: US8912121B2, “Herbicidal compositions comprising 4-amino-3-chloro-5-fluoro-6-(4-chloro-2-fluoro-3-methoxyphenyl)pyridine-2-carboxylic acid or a derivative thereof and certain PS II inhibitors” (Dow Agrosciences LLC, priority 2012, dated 2014)

Legend:
[1] = system: IPOHE (Ipomoea hederacea, ivyleaf morningglory); assay: Postemergence foliar-applied mixtures, direct seeded rice, greenhouse; type: in vivo, Ipomoea hederacea Jacq.; conditions: post-emergence
Excerpt: (§1) Seeds or nutlets of the desired test plant species were planted in a soil matrix prepared by mixing a loam or sandy loam soil (e.g., 28.6 percent silt, 18.8 percent clay, and 52.6 percent sand, with a pH of about 5.8 and an organic matter content of about 1.8 percent) and calcareous grit in an 80 to 20 ratio. The soil matrix was contained in plastic pots with a volume of 1 quart and a surface area of 83.6 square centimeters (cm^2). When required to ensure good germination and healthy plants, a fungicide treatment and/or other chemical or physical treatment was applied. The plants were grown for 8-22 days in a greenhouse with an approximate 14 h photoperiod which was maintained at about 29° C. during the day and 26° C. during the night. Nutrients (Peters Excel® 15-5-15 5-Ca 2-Mg and iron chelate) were applied in the irrigation solution as needed and water was added on a regular basis. Supplemental lighting was provided with overhead metal halide 1000-Watt lamps as necessary. The plants were employed for testing when they reached the first through fourth true leaf stage.
(§2) Treatments consisted of the acid or esters of 4-amino-3-chloro-5-fluoro-6-(4-chloro-2-fluoro-3-methoxy-phenyl) pyridine-2-carboxylic acid (Compound A), each formulated as an SC (suspension concentrate), and various herbicidal components alone and in combination. Forms of compound A were applied on an acid equivalent basis.
(§3) Other herbicidal components were applied on an active ingredient basis and included Photosystem II (PSII)-inhibiting herbicides propanil formulated as Stam® M4 EC, bentazon-sodium formulated as Basagran®, atrazine formulated as Atrazine 90 WDG, bromoxynil octanoate ester formulated as Buctril®, simetryne (technical grade material), simazine formulated as Princep® Caliber 90, ioxynil (technical grade material), cyanazine (technical grade material), and hexazinone (technical grade material).
(§4) Treatment requirements were calculated based upon the rates being tested, the concentration of active ingredient or acid equivalent in the formulation, and a 12 mL application volume at a rate of 187 L/ha.
(§5) For treatments comprised of formulated compounds, measured amounts of compounds were placed individually in 25 mL glass vials and diluted in a volume of 1.25% (v/v) Agri-Dex® crop oil concentrated to obtain 12× stock solutions. […] Application solutions were prepared by adding an appropriate amount of each stock solution (e.g., 1 mL) and diluted to the appropriate final concentrations with the addition of 10 mL of an aqueous mixture of 1.25% (v/v) crop oil concentrate so that the final spray solutions contained 1.25+/−0.05% (v/v) crop oil concentrate.
(§6) For treatments comprised of technical compounds, weighed amounts can be placed individually in 25 mL glass vials and dissolved in a volume of 97:3 v/v acetone/DMSO to obtain 12× stock solutions. […] Application solutions can be prepared by adding an appropriate amount of each stock solution (e.g., 1 mL) and diluted to the appropriate final concentrations with the addition of 10 mL of an aqueous mixture of 1.5% (v/v) crop oil concentrate so that the final spray solutions contain 1.25% (v/v) crop oil concentrate. When technical materials are used, the concentrated stock solutions can be added to the spray solutions so that the final acetone and DMSO concentrations of the application solutions are 16.2% and 0.5%, respectively.
(§7) For treatments comprised of formulated and technical compounds, weighed amounts of the technical materials were placed individually in 25 mL glass vials and dissolved in a volume of 97:3 v/v acetone/DMSO to obtain 12× stock solutions, and measured amounts of the formulated compounds were placed individually in 25 mL glass vials and diluted in a volume of 1.5% (v/v) crop oil concentrate or water to obtain 12× stock solutions. […]

[2] = system: BRAPP (Brachiaria platyphylla, broadleaf signalgrass); assay: Pre-emergence soil-applied mixtures, greenhouse; type: in vivo, Brachiaria platyphylla (Groseb.) Nash; conditions: 27 DAA
Excerpt: (§8) Seeds or nutlets of the desired test plant species were planted in a soil matrix prepared by mixing a loam soil (32 percent silt, 23 percent clay, and 45 percent sand, with a pH of about 6.5 and an organic matter content of about 1.9 percent) and calcareous grit in an 80 to 20 ratio. The soil matrix was contained in plastic pots with a volume of 1 quart and a surface area of 83.6 square centimeters (cm^2).
(§9) Treatments consisted of the benzyl ester of 4-amino-3-chloro-5-fluoro-6-(4-chloro-2-fluoro-3-methoxy-phenyl)pyridine-2-carboxylic acid (compound A) formulated as an SC (suspension concentrate) and various herbicidal components alone and in combination. Forms of compound A were applied on an acid equivalent basis.
(§10) Other herbicidal components were applied on an acid equivalent or active ingredient basis and included the PSII-inhibiting herbicides, atrazine formulated as Atrazine® 90WDG, metribuzin formulated as Metribuzin 75DF, simazine formulated as Princep Caliber 90, tebuthiuron formulated as Spike 80DF, cyanazine (technical grade material), hexazinone (technical grade material), linuron (technical grade material), terbuthylazine (technical grade material), and diuron formulated as Diuron 4L.
as §4
as §5, with “oil concentrate (COC)” for “oil concentrated”, “(v/v) COC” for “(v/v) crop oil concentrate”, “contained 1.25%” for “contained 1.25+/−0.05%”, “(v/v) COC.” for “(v/v) crop oil concentrate.”
as §6, with “97:3 (v/v)” for “97:3 v/v”, “(v/v) COC” for “(v/v) crop oil concentrate”, “(v/v) COC.” for “(v/v) crop oil concentrate.”
(§11) For treatments comprised of formulated and technical compounds, weighed amounts of the technical materials can be placed individually in 25 mL glass vials and dissolved in a volume of 97:3 (v/v) acetone/DMSO to obtain 12× stock solutions, and measured amounts of the formulated compounds can be placed individually in 25 mL glass vials and diluted in a volume of 1.5% (v/v) COC or water to obtain 12× stock solutions. […] Application solutions can be prepared by adding an appropriate amount of each stock solution (e.g., 1 mL) and diluted to the appropriate final concentrations with the addition of an appropriate amount of an aqueous mixture of 1.5% (v/v) COC so that the final spray solutions contain 1.25% (v/v) COC. As required, additional water and/or 97:3 (v/v) acetone/DMSO can be added to individual application solutions so that the final acetone and DMSO concentrations of the application solutions being compared are 8.1% and 0.25%, respectively.
(§12) All stock solutions and applications solutions were visually inspected for compound compatibility prior to application. Spray solutions were applied to the soil with an overhead Mandel track sprayer equipped with a 8002E nozzles calibrated to deliver 187 L/ha over an application area of 0.503 m^2 at a spray height of 18 inches (46 cm) above average pot height. […]

[3] = system: XANST (Xanthium strumarium, common cocklebur); assay: Pre-emergence soil-applied mixtures, greenhouse; type: in vivo, Xanthium strumarium L.; conditions: Terbuthylazine 1000 g ai/ha; 27 DAA
Excerpt: as §8, §9, §10, §4
as §5, with “oil concentrate (COC)” for “oil concentrated”, “(v/v) COC” for “(v/v) crop oil concentrate”, “contained 1.25%” for “contained 1.25+/−0.05%”, “(v/v) COC.” for “(v/v) crop oil concentrate.”
as §6, with “97:3 (v/v)” for “97:3 v/v”, “(v/v) COC” for “(v/v) crop oil concentrate”, “(v/v) COC.” for “(v/v) crop oil concentrate.”
as §11, §12

[4] = system: ECHCO (Echinochloa colona, junglerice); assay: Postemergence foliar-applied mixtures, direct seeded rice, greenhouse; type: in vivo, Echinochloa colona (L.) Link; conditions: 21 DAA
Excerpt: as §1, §2, §3, §4, §5, §6, §7

[5] = system: ECHCG (Echinochloa crusgalli, barnyardgrass); assay: as above; type: in vivo, Echinochloa crusgalli (L.) Beauv.; conditions: 625 g ai/ha; 21 DAA
Experimental: as §1, with “When required to ensure good germination and healthy plants, a fungicide treatment and/or other chemical or physical treatment was applied.” left out
as §2, §3, §5, §6
For treatments comprised of formulated and technical compounds, weighed amounts of the technical materials were placed individually in 25 mL glass vials and dissolved in a volume of 97:3 v/v acetone/DMSO to obtain 12× stock solutions, and measured amounts of the formulated compounds were placed individually in 25 mL glass vials and diluted in a volume of 1.5% (v/v) crop oil concentrate or water to obtain 12× stock solutions. […] Application solutions were prepared by adding an appropriate amount of each stock solution (eg, 1 mL) and diluted to the appropriate final concentrations with the addition of an appropriate amount of an aqueous mixture of 1.5% (v/v) crop oil concentrate so that the final spray solutions contained 1.25% (v/v) crop oil concentrate.

`N#Cc1cc(I)c(O)c(I)c1` [Ioxynil, 4-hydroxy-3,5-diiodobenzonitrile, reference compound] showed a pest or weed control at 300 g/ha ([1]; 480 h, read-out: Visual Weed Control (%) Obs, 300 g ai/ha, 20 DAA) of 50%.

For `CON(C)C(=O)Nc1ccc(Cl)c(Cl)c1` [Linuron, N′-(3,4-dichlorophenyl)-N-methoxy-N-methylurea], the “Visual Weed Control (%) - 27 DAA BRAPP Obs” value ([2]; Linuron 620 g ai/ha) was 0%.

For `CCNc1nc(Cl)nc(NC(C)(C)C)n1` [Terbuthylazine, 6-chloro-N-(1,1-dimethylethyl)-N′-ethyl-1,3,5-triazine-2,4-diamine, reference compound], the “Visual Weed Control (%) - 27 DAA XANST Obs” value [3] was 45%.

`CCNc1nc(Cl)nc(NC(C)(C)C#N)n1` [Cyanazine, 2-[[4-chloro-6-(ethylamino)-1,3,5-triazin-2-yl]amino]-2-methylpropanenitrile] was tested, and the “Visual Weed Control (%) - 27 DAA BRAPP Obs” value ([2]; Cyanazine 170 g ai/ha) was 0%, the “Visual Weed Control (%) - 27 DAA BRAPP Obs” value ([2]; Cyanazine 440 g ai/ha) was 15% and the “Visual Weed Control (%) - 27 DAA BRAPP Obs” value ([2]; Cyanazine 880 g ai/ha) was 10%. The pest or weed control at 275 g/ha ([1]; 480 h, read-out: Visual Weed Control (%) Obs, 275 g ai/ha, 20 DAA) was 50%.

`CN(C)c1nc(=O)n(C2CCCCC2)c(=O)n1C` [Hexazinone, 3-cyclohexyl-6-(dimethylamino)-1-methyl-1,3,5-triazine-2,4(1H,3H)-dione, reference compound] was tested, and the “Visual Weed Control (%) Obs” value ([4]; 625 g ai/ha) was 25%, the “Visual Weed Control (%) Obs” value ([4]; 1250 g ai/ha) was 55% and the pest or weed control at 625 g/ha ([1]; 504 h, 625 g ai/ha, 21 DAA, read-out: Visual Weed Control (%) Obs) was 80%. For the same compound, the “Visual Weed Control (%) Obs” value [5] was 20%.
